Reference: patent US12528813B2, “Substituted imidazo[4,5-b]pyridines as M3 receptor PAMs” (NIPPON SHINYAKU CO., LTD., priority 2019, dated 2026)

Tested on: anesthetized rats
Assay: Effect on increase in intravesical pressure induced by pelvic nerve electrical stimulation in anesthetized rats
Type: in vivo, rat
Conditions: intravenous, 0.1 mg/kg

For `CN(CCCCCCN(C)C(=O)Oc1ccc[n+](C)c1)C(=O)Oc1ccc[n+](C)c1` [distigmine bromide, reference compound], the “nicotinic side effect (fasciculation)” value was “a nicotinic side effect (fasciculation) was observed”.

Tested on: anesthetized rats
Assay: as above
Type: in vivo, rat
Conditions: Rattus norvegicus, 1 h, anesthetized SD female rats, test compound 0.3 mg/kg intravenous, single dose, read-out: Ratio of Change Rc of AUC of increase in intravesical pressure (maximum during 1 hour after administration)
Protocol: As the action of nerve stimulation-dependent bladder contraction in vivo, the action of the test compound on increase in intravesical pressure induced by pelvic nerve electrical stimulation using rats was measured by the following method.
SD female rats (Japan SLC, Inc.) were anesthetized by subcutaneously administering 1200 mg/kg of urethane (manufactured by Fujifilm Wako Pure Chemical Industries, Ltd.), and then the lower abdomen of each rat was incised at the midline. After the ureters on both sides were ligated and cut, a cannula for measuring intravesical pressure (PE-60, manufactured by BECTON DICKINSON) was inserted into the bladder through the external urethral orifice and fixed with sutures. After about 200 μL of saline was injected via the cannula inserted into the bladder, the other end of the cannula was connected to a pressure transducer to measure intravesical pressure.
The pelvic nerve near the bladder of the rat was separated under stereomicroscope observation and an electrode for nerve stimulation (K2-14015M-PT, manufactured by BrainScience idea. Co., Ltd.) was attached. The peritoneal cavity of the rat was filled with liquid paraffin (26114-75, NACALAI TESQUE, INC.). After the postoperative rest period, the pelvic nerve was electrically stimulated to cause an increase in intravesical pressure, using an electrical stimulator (SEN-7203, manufactured by NIHON KOHDEN CORPORATION). At this time, the stimulation frequency was set to 8 Hz, the pulse width was set to 0.3 ms, and the stimulation time was set to 10 seconds. The voltage of the electrical stimulator was adjusted such that the increase in intravesical pressure was about 50% to 70% of that at stimulation with 10 V.
Then, the electric stimulation was repeated at an interval of 10 minutes. After the increase in intravesical pressure induced by electric stimulation was stabilized three times or more, a test compound (dosage 0.3 mg/kg), distigmine bromide (dosage 0.03, 0.1 mg/kg), or a vehicle was intravenously administered at a single dosage of 1.0 mL/kg via a catheter placed into a femoral vein, and the effect of the test compound on increase in intravesical pressure was measured for 1 hour. Saline was used as a vehicle, and the test compound was dissolved in dimethylsulfoxide and then added to the vehicle. At this time, the final concentration of dimethylsulfoxide was set to 10%.
The response data (intravesical pressure) were imported to a personal computer via a data collection and analysis system (PowerLab (registered trademark), manufactured by ADInstruments) and analyzed using analysis software (LabChart (registered trademark), manufactured by ADInstruments). For each electric stimulation, AUC of the increase in intravesical pressure (area under the curve of plot of intravesical pressure) was calculated, and a ratio of change Rc (unit: %) with respect to the value (AUC) before administering the test compound was calculated according to the following equation (2). In the equation (2), Ab denotes AUC before administering the test compound, and Aa denotes AUC after administering the test compound. In addition, the maximum effect observed during 1 hour after administering the test compound (maximum ratio of change Rc) was defined as the effect of the test compound. The higher the ratio of change Rc, the higher the effect of enhancing bladder contraction force and the higher the effect of increasing intravesical pressure. Rc=100×(Aa−Ab)/Ab (2)

Point of comparison: `COCC1(CN(C)c2cc(-c3cnc(C4CC4)c(C(F)(F)F)c3)nc3nc(NC(=O)c4cn5c(n4)CCC(C(=O)O)C5)[nH]c23)CCCC1` (stereo not drawn) [Example 5, 2-({5-[6-Cyclopropyl-5-(trifluoromethyl)pyridin-3-yl]-7-({[1-(methoxymethyl)cyclopentyl]methyl}(methyl)amino)-1H-imidazo[4,5-b]pyridin-2-yl}carbamoyl)-5,6,7,8-tetrahydroimidazo[1,2-a]pyridine-6-carboxylic acid], change in vivo at 0.3 mg/kg 49.1%. Against it:
- COCC1(CN(C)c2cc(-c3cnc(C4CC4)c(C(F)(F)F)c3)nc3nc(NC(=O)c4ccc(CCC(=O)O)cn4)[nH]c23)CCCC1 [Example 1, 3-[6-({5-[6-Cyclopropyl-5-(trifluoromethyl)pyridin-3-yl]-7-({[1-(methoxymethyl)cyclopentyl]methyl}(methyl)amino)-1H-imidazo[4,5-b]pyridin-2-yl}carbamoyl)pyridin-3-yl]propanoic acid] — higher, 55.3%
- CCOc1cc(-c2cc(N(C)CC3(COC)CCCC3)c3[nH]c(NC(=O)c4ccc(CCC(=O)O)cn4)nc3n2)cc(C(F)(F)F)n1 [Example 2, 3-[6-({5-[2-Ethoxy-6-(trifluoromethyl)pyridin-4-yl]-7-({[1-(methoxymethyl)cyclopentyl]methyl}(methyl)amino)-1H-imidazo[4,5-b]pyridin-2-yl}carbamoyl)pyridin-3-yl]propanoic acid] — lower, 36.5%
- COCC1(CN(C)c2cc(-c3cc(C4CC4)nc(C(F)(F)F)c3)nc3nc(NC(=O)c4ccc(CCC(=O)O)cn4)[nH]c23)CCCC1 [Example 3, 3-[6-({5-[2-Cyclopropyl-6-(trifluoromethyl)pyridin-4-yl]-7-({[1-(methoxymethyl)cyclopentyl]methyl}(methyl)amino)-1H-imidazo[4,5-b]pyridin-2-yl}carbamoyl)pyridin-3-yl]propanoic acid] — lower, 28.5%
- COCC1(CN(C)c2cc(-c3cnc(C4CC4)c(C(F)(F)F)c3)nc3nc(NC(=O)c4ccc(CC(C)C(=O)O)cn4)[nH]c23)CCCC1 (stereo not drawn) [Example 4, 3-[6-({5-[6-Cyclopropyl-5-(trifluoromethyl)pyridin-3-yl]-7-({[1-(methoxymethyl)cyclopentyl]methyl}(methyl)amino)-1H-imidazo[4,5-b]pyridin-2-yl}carbamoyl)pyridin-3-yl]-2-methylpropanoic acid] — higher, 89.5%
- COCC1(CN(C)c2cc(-c3cnc(C4CC4)c(C(F)(F)F)c3)nc3nc(NC(=O)c4ccc(CN(C)CC(=O)O)cn4)[nH]c23)CCCC1 [Example 6] — higher, 55.1%
- COCC1(CN(C)c2cc(-c3cnc(C4CC4)c(C(F)(F)F)c3)nc3nc(NC(=O)c4cn(CCCC(=O)O)cn4)[nH]c23)CCCC1 [Example 7, 4-[4-({5-[6-Cyclopropyl-5-(trifluoromethyl)pyridin-3-yl]-7-({[1-(methoxymethyl)cyclopentyl]methyl}(methyl)amino)-1H-imidazo[4,5-b]pyridin-2-yl}carbamoyl)-1H-imidazol-1-yl]butanoic acid] — lower, 41.8%
- COCC1(CN(C)c2cc(-c3cnc(C4CC4)c(C(F)(F)F)c3)nc3nc(NC(=O)c4ccc(CCCC(=O)O)cn4)[nH]c23)CCCC1 [Example 8, 4-[6-({5-[6-Cyclopropyl-5-(trifluoromethyl)pyridin-3-yl]-7-({[1-(methoxymethyl)cyclopentyl]methyl}(methyl)amino)-1H-imidazo[4,5-b]pyridin-2-yl}carbamoyl)pyridin-3-yl]butanoic acid] — higher, 85.7%
- CCOc1cc(-c2cc(N(C)CC3(COC)CCCC3)c3[nH]c(NC(=O)c4cc5c(cn4)CN(CCC(=O)O)CC5)nc3n2)cc(C(F)(F)F)n1 [Example 9] — lower, 44%
- COCC1(CN(C)c2cc(-c3cc(C4CC4)nc(C(F)(F)F)c3)nc3nc(NC(=O)c4cc5c(cn4)CN(CCC(=O)O)CC5)[nH]c23)CCCC1 [Example 10, 3-[6-({5-[2-Cyclopropyl-6-(trifluoromethyl)pyridin-4-yl]-7-({[1-(methoxymethyl)cyclopentyl]methyl}(methyl)amino)-1H-imidazo[4,5-b]pyridin-2-yl}carbamoyl)-1,2,3,4-tetrahydro-2,7-naphthyridin-2-yl]propanoic acid] — lower, 33.7%
- COCC1(CN(C)c2cc(-c3cnc(C4CC4)c(C(F)(F)F)c3)nc3nc(NC(=O)c4ccc(CCCC(=O)O)cn4)[nH]c23)CCCCC1 [Example 11, 4-[6-({5-[6-Cyclopropyl-5-(trifluoromethyl)pyridin-3-yl]-7-({[1-(methoxymethyl)cyclohexyl]methyl}(methyl)amino)-1H-imidazo[4,5-b]pyridin-2-yl}carbamoyl)pyridin-3-yl]butanoic acid] — higher, 80.7%
- CCOc1ncc(-c2cc(N(C)CC3(COC)CCCC3)c3[nH]c(NC(=O)c4ccc(CCCC(=O)O)cn4)nc3n2)cc1C(F)(F)F [Example 12, 4-[6-({5-[6-Ethoxy-5-(trifluoromethyl)pyridin-3-yl]-7-({[1-(methoxymethyl)cyclopentyl]methyl}(methyl)amino)-1H-imidazo[4,5-b]pyridin-2-yl}carbamoyl)pyridin-3-yl]butanoic acid] — higher, 53.4%
- CCOc1ncc(-c2cc(N(C)CC3(COC)CCCCC3)c3[nH]c(NC(=O)c4ccc(CCC(=O)O)cn4)nc3n2)cc1C(F)(F)F [Example 13] — higher, 113%
- CCOc1ncc(-c2cc(N(C)CC3(COC)CCCCC3)c3[nH]c(NC(=O)c4ccc(CCCC(=O)O)cn4)nc3n2)cc1C(F)(F)F [Example 14, 4-[6-({5-[6-Ethoxy-5-(trifluoromethyl)pyridin-3-yl]-7-({[1-(methoxymethyl)cyclohexyl]methyl}(methyl)amino)-1H-imidazo[4,5-b]pyridin-2-yl}carbamoyl)pyridin-3-yl]butanoic acid] — higher, 70.4%

Same assay, conditions: anesthetized SD female rats, intravenous, test compound 0.3 mg/kg, distigmine bromide 0.03, 0.1 mg/kg

`CN(CCCCCCN(C)C(=O)Oc1ccc[n+](C)c1)C(=O)Oc1ccc[n+](C)c1` [distigmine bromide, reference compound] was tested, and the “effect of enhancing bladder contraction force” value was “exhibited an effect of enhancing bladder contraction force”.

Same assay, conditions: anesthetized SD female rats, test compound 0.3 mg/kg intravenous, single dose

Point of comparison: `COCC1(CN(C)c2cc(-c3cnc(C4CC4)c(C(F)(F)F)c3)nc3nc(NC(=O)c4ccc(C5CC5C(=O)O)cn4)[nH]c23)CCCC1` (stereo not drawn) [Compound 49], “Ratio of Change Rc of AUC of increase in intravesical pressure (maximum during 1 hour after administration)” value 43.6%. Against it:
- COCC1(CN(C)c2cc(-c3cnc(C4CC4)c(C(F)(F)F)c3)nc3nc(NC(=O)c4cn(C[C@@H](C)C(=O)O)cn4)[nH]c23)CCCC1 [Compound 53] — higher, 50.2%
